By IC50 is commonly meant the concentration that gives 50% inhibition.

Entries after “also recorded” stand apart in the source; their conditions may differ. Like-named read-outs stand apart in the source and are kept apart here.

For assay [1], the target named is Src (Homo sapiens, UniProt P12931). Briefly: Tyrosine kinase activity of Src using poly E4Y and 32P-ATP. The assay is classed as biochemical. On the procedure:
(§1) Recombinant human Src was expressed using the baculovirus-insect cell system and purified as published (Budde et al., 1993). Recombinant Csk and the FGF receptor (FGFr) were expressed as glutathione-S-transferase fusion proteins using the pGEX expression vector and E. coli, and purified as described (Sun et al., 1995).
(§2) The tyrosine kinase activity of Src, Csk and FGFr was determined using poly E4Y and ^32P-ATP. Briefly, enzymes were assayed in a reaction mixture consisting of 0.15 M EPPS-NaOH (pH 8.0) with 6 mM MgCl2, 0.2 mM γ^32P-ATP (0.2-0.4 mCi/μmol), 10% glycerol, 0.1% Triton X-100, and poly E4Y. Poly E4Y is a synthetic peptide whose phosphorylation is measured in this assay by the addition of the radioactively labeled phosphate from the ATP (Budde et al., 1994). For screening assays, 50 μg/ml poly E4Y was used.

The target in assay [2] is FGF receptor (FGFr) (Homo sapiens, UniProt P11362). Briefly: Tyrosine kinase activity of FGFr using poly E4Y and 32P-ATP. Format: biochemical. The method, then: Recombinant human Src was expressed using the baculovirus-insect cell system and purified as published (Budde et al., 1993). Recombinant Csk and the FGF receptor (FGFr) were expressed as glutathione-S-transferase fusion proteins using the pGEX expression vector and E. coli, and purified as described (Sun et al., 1995). The tyrosine kinase activity of Src, Csk and FGFr was determined using poly E4Y and ^32P-ATP. […] Poly E4Y is a synthetic peptide whose phosphorylation is measured in this assay by the addition of the radioactively labeled phosphate from the ATP (Budde et al., 1994). For screening assays, 50 μg/ml poly E4Y was used.

In assay [3] the target is T1, Csk (Homo sapiens, UniProt P41240).
T1 construct: GST (glutathione-S-transferase); made in house; host or cells: E. coli (pGEX vector)
Briefly: Tyrosine kinase activity of Csk using poly E4Y and 32P-ATP. Format: biochemical. The method, then: as §1, §2

The subject of assay [4] is cell growth. Briefly: Cell growth inhibition (FIG. 1). Format: cell-based. From the text: FIG. 1 graphically illustrates that a stable cobalt-tyrosineamide identified as complex no.
This indicates a requirement for both the tyrosine amide moiety and for the metal moiety.

The mark [5] stands for this setting: * = Extrapolated value from the graph.

Chain of FGF receptor (FGFr) (P11362 398-822): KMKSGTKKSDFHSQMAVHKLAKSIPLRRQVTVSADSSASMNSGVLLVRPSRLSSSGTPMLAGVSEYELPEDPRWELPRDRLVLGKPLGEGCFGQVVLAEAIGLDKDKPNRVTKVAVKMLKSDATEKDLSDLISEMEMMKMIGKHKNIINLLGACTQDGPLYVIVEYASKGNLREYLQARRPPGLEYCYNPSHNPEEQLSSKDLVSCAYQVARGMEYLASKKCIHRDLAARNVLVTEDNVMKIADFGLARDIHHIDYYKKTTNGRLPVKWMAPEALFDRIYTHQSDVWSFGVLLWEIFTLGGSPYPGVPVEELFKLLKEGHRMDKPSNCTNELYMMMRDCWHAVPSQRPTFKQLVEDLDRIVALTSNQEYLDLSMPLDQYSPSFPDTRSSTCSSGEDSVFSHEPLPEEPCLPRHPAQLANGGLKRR
T1 sequence (P41240 whole entry, species assumed): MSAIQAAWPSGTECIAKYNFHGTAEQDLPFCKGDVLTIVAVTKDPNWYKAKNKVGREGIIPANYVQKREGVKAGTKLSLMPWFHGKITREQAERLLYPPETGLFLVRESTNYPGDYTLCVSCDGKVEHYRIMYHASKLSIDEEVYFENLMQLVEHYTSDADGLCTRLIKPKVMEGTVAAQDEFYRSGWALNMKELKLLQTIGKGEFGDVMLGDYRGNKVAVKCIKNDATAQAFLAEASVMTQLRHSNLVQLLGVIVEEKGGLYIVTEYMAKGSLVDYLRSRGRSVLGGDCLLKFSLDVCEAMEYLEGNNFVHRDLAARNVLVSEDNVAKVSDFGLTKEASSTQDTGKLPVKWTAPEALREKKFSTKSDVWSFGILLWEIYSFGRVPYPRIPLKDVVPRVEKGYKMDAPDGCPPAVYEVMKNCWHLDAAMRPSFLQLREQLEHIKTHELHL

For `C[SH]1CCC(N)C(=O)[N](O)[Co]1[OH]` (racemic) [Complex 4], in assay [1] (setting [5]), the IC50 is 176 µM.
`N[C@@H]1CCCC[C@H]1N.[Cl-].[Cl-].[Co+2]` (racemic) [Complex 30]: the results for the IC50 in assay [1] and in assay [2] (setting [5]) were 79 µM and 123 µM, respectively.
`NC(Cc1ccc(O)cc1)C(=O)NO.[Co+2].[O-][Cl+3]([O-])([O-])[O-].[O-][Cl+3]([O-])([O-])[O-]` (centres unmarked) [Complex 1] registered an IC50 in assay [2] of 14 µM.
In the case of `NCC(=O)NO.[OH][Co][OH]` [Complex 5], the IC50 in assay [1] (setting [5]) was 259 µM.
On to `NCCC(=O)NO.[OH][Co][OH]` [Complex 8], for which the IC50 is 100 µM in assay [1] and 150 µM in assay [3] (setting [5]).
For the compound `NC(=O)C(N)Cc1c[nH]c2ccccc12.[O-][Cl+3]([O-])([O-])[O][Co][O][Cl+3]([O-])([O-])[O-]` (centres unmarked) [Complex 13], the IC50 stood at 24 µM in assay [1], 77 µM in assay [3] and 54 µM in assay [2].
On to `NC(=O)C(N)Cc1ccc(O)cc1.[Cl-].[Cl-].[Co+2]` (centres unmarked) [Complex 14], for which the IC50 in assay [1] is 28 µM; in assay [2], 20 µM.
`NC(=O)C(N)Cc1ccc(O)cc1.[OH][Co][Cl]` (centres unmarked) [Complex 15]: the IC50 is 46 µM in assay [1], 330 µM in assay [3] (setting [5]) and 180 µM in assay [2] (setting [5]).
For `CC(=O)[O-].NC(=O)C(N)Cc1ccc(O)cc1.[Co+2].[OH-]` (centres unmarked) [Complex 16], the IC50 in assay [1] (setting [5]) is 285 µM.
Turning to `NCC(N)=O.[Cl-].[Cl][Co][Cl].[Na+]` [Complex 17], the IC50 in assay [1] was 56 µM; in assay [3] (setting [5]) it was 218 µM; in assay [2], 22 µM.
On to `CC(C)CC(N)C(N)=O.[Cl-].[Cl-].[Co+2]` (centres unmarked) [Complex 18], for which the IC50 was 105 µM in assay [1] (setting [5]), 211 µM in assay [3] (setting [5]) and 38 µM in assay [2].
`CC(C)CC(N)C(N)=O.[Cl-].[Cl-].[Co+2]` (centres unmarked) [Complex 19]: the IC50 in assay [1] was determined as 35 µM; in assay [2] it was 45 µM.
For `NC(=O)CCC(N)C(=O)[O][Co][Cl]` (centres unmarked) [Complex 20], the values for the IC50 in assay [1], in assay [3] (setting [5]) and in assay [2] were 57 µM, 281 µM and 100 µM, respectively.
Turning to `NC(=O)CCC(N)C(=O)[O][Co][Cl]` (centres unmarked) [Complex 21], the IC50 is 58 µM in assay [1], 389 µM in assay [3] (setting [5]) and 93 µM in assay [2].
For `NC(=O)CCC(N)C(N)=O.[Cl][Co][Cl]` (centres unmarked) [Complex 22], the half-maximal inhibitory concentration (IC50) in assay [1] was 71 µM; in assay [3] (setting [5]) it was 361 µM; in assay [2], 46 µM.
For the compound `NCCN.[Cl-].[Co+2].[OH-]` [Complex 24], the IC50 in assay [1] (setting [5]) is 215 µM; in assay [2] it was 24 µM.
With `Nc1ccccc1N.[Cl-].[Cl-].[Co+2]` [Complex 25], the IC50 in assay [1] is 9 µM; in assay [3] (setting [5]) it was 210 µM; in assay [2], 14 µM.
As to `NCCNc1cccc2ccccc12.[Cl-].[Cl-].[Co+2]` [Complex 26], the IC50 in assay [1] stood at 65 µM; in assay [2], 39 µM.
On to `N[C@H](c1ccccc1)[C@@H](N)c1ccccc1.N[C@H](c1ccccc1)[C@@H](N)c1ccccc1.[Cl][Co][Cl].[Cl][Co][Cl]` [Complex 27], for which the figures for the IC50 in assay [1], in assay [3] and in assay [2] were 7 µM, 59 µM and 17 µM, respectively.
On the same counts, the results for `N[C@H](c1ccccc1)[C@H](N)c1ccccc1.N[C@H](c1ccccc1)[C@H](N)c1ccccc1.[Cl][Co][Cl].[Cl][Co][Cl]` [Complex 31] are 55 µM, 50 µM and 98 µM.
Consider `O=C([O-])c1ccccc1O.O=C([O-])c1ccccc1O.[Co+2]` [Complex 32], for which half-maximal inhibition in assay [2] (IC50) required 182 µM.
As to `O=C(NO)c1ccccc1O.O=C(NO)c1ccccc1O.[Cl][Co][Cl]` [Complex 33], the IC50 in assay [1] was 6 µM; in assay [3] it was 92 µM; in assay [2], 2 µM.
For `O=C([O][Co][O]C(=O)c1ccccc1S)c1ccccc1S` [Complex 34], in assay [2], the IC50 is 125 µM.
For the compound `[Co+2].[O-]c1ccccc1C=NCCN=Cc1ccccc1[O-]` [Complex 35, Co[N,N-bis(salicylidene)ethylenediamine]], the IC50 in assay [1] was 108 µM; in assay [3] it was 92 µM; in assay [2] it was 3 µM.
`[Co+2].[O-]c1ccccc1C=Nc1ccccc1N=Cc1ccccc1[O-]` [Complex 36, Co[N,N-bis(salicylidene)1,2-phenylenediamine]]: the IC50 in assay [1] was 28 µM; in assay [3] (setting [5]), 128 µM; in assay [2], 1 µM.
Compound `[Cl][Co]([Cl])([PH](c1ccccc1)(c1ccccc1)c1ccccc1)[PH](c1ccccc1)(c1ccccc1)c1ccccc1` [Complex 37] showed an IC50 in assay [2] of 76 µM.
For `[Cl][Co]1([Cl])[PH](c2ccccc2)(c2ccccc2)CC[PH]1(c1ccccc1)c1ccccc1` [Complex 38], in assay [1], the IC50 amounted to 66 µM.
`CN1CCCN=Cc2ccccc2[O][Co][O]c2ccccc2C=NCCC1` [Complex 40]: the IC50 in assay [1] is 95 µM; in assay [2], 41 µM.
Regarding `CC(=O)C=C(C)[O-].CC(=O)C=C(C)[O-].[Co+2]` [Complex 41], the IC50 is 177 µM in assay [1] (setting [5]) and 233 µM in assay [2] (setting [5]).
`O=C(C=C(O)C(F)(F)F)C(F)(F)F` [Complex 42]: in assay [1], the IC50 was determined as 105 µM.
For `CC(=O)C=C([O-])c1ccccc1.CC(=O)C=C([O-])c1ccccc1.[Co+2]` [Complex 43], the 50% inhibitory concentration (IC50) in assay [1] worked out at 47 µM; in assay [2] it was 83 µM.
As for `O=Cc1ccccc1[O-].O=Cc1ccccc1[O-].[Co+2]` [Complex 44, Co(salicylaldehyde)2], the IC50 in assay [1] was 113 µM; in assay [2] (setting [5]), 148 µM.
On to `NC(=O)[C@@H](N)Cc1ccc(O)cc1` [tyrosine amide], for which the cell growth inhibition entry in assay [4] is recorded as “not inhibitory; also recorded: neither free metal nor the tyrosine amide were inhibitory”.
Consider “Co[N,N-bis(salicylidene)dianiline] [Complex 39]”, for which the values for the IC50 in assay [1] (setting [5]) and in assay [2] (setting [5]) were 133 µM and 155 µM, respectively.
